This is an account of results in US20260337184A1, “NOVEL SUBSTITUTED 2-CARBONYL-BENZOTHIOPHENE-6-CARBOXYLIC ACID DERIVATIVES, PROCESSES FOR THEIR PREPARATION AND THERAPEUTIC USES THEREOF” (SANOFI, priority 2022, published 2026).

The target of this experiment is T1, estrogen receptor (ERα) (Homo sapiens, UniProt P03372).
T1 construct: endogenous in cells; host or cells: MCF7 cells (ATCC)
T1 sequence (P03372 1-595): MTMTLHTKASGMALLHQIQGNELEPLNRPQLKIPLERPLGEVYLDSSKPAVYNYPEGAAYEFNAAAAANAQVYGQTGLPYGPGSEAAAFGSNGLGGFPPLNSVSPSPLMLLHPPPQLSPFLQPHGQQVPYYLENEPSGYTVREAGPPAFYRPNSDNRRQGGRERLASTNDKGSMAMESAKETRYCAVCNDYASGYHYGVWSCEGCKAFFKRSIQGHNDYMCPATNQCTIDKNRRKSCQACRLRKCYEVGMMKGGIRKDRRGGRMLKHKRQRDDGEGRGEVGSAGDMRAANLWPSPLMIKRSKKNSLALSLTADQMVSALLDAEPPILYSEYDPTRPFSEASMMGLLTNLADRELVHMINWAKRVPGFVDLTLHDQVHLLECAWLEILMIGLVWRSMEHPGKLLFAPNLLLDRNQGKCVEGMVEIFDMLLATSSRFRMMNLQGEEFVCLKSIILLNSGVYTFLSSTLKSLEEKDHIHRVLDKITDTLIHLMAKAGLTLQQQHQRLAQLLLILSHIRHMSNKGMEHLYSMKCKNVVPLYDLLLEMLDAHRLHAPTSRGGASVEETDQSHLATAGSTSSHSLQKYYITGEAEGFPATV
Put plainly: Estrogen receptor degradation activity (ERα in cell western assay, MCF7 breast cancer cells). Particulars: for percent ER degradation at 0.3 µM: 4 hours, relative to fulvestrant (0.1 μM) and DMSO; for DC50: concentration which degrades 50% of the estrogen receptor, 4 hours post compound addition, read-out: Degradation IC50. The class given is cell-based. How it is done:
Test: Estrogen Receptor Degradation Activity
Said test involves measuring the in vitro degradation activity of the compounds of the Table 1a.
The measurements of the degradation activities were made using a breast cancer cell ERα in cell western assay as described hereunder.
MCF7 cells (ATCC) were seeded in 384 wells microplate (collagen coated) at a concentration of 10000 cells/30 μL per well in red phenol free MEM alpha medium (invitrogen) containing 5% charcoal dextran striped FBS. The following day, 9 points serial 1:5 dilution of each compound was added to the cells in 2.5 μL at final concentrations ranging from 0.3-0.0000018 μM (in table 2), or 0.1 μM for fulvestrant (using as positive control). At 4 hours post compound addition the cells were fixed by adding 25 μL of formalin (final concentration 5% formalin containing 0.1% triton) for 10 minutes at room temperature and then washed twice with PBS. Then, 50 μL of LI-COR blocking buffer containing 0.1% Triton was added to plate for 30 minutes at room temperature. LI-COR blocking buffer was removed and cells were incubated overnight at cold room with 50 μL anti-ER rabbit monoclonal antibody (Thermo scientific MA1-39540) diluted at 1:1000 in LI-COR blocking buffer containing 0.1% tween-20. Wells which were treated with blocking buffer but no antibody were used as background control. Wells were washed twice with PBS (0.1% tween-20) and incubated at 37° C. for 60 minutes in LI-COR (0.1% tween-20) containing goat anti-rabbit antibody Alexa 488 (1:1000) and Syto-64 a DNA dye (2 μM final concentration). Cells were then washed 3 times in PBS and scanned in ACUMEN explorer (TTP-Labtech). Integrated intensities in the green fluorescence and red fluorescence were measured to determine the levels of ERα and DNA respectively.
The degradation activity with respect to estrogen receptors in this test is given by the concentration which degrades 50% of the estrogen receptor (or IC50) in nM.
The % of ERα levels decrease were determined as follows: % inhibition=100*(1−(sample−fulvestrant: DMSO−fulvestrant)).

SMILES strings stand for the structures.

For the molecule `Cc1cc(F)cc(C)c1C(=O)c1sc2cc(C(=O)O)ccc2c1Oc1ccc(CC2CN(CCCF)C2)cc1` [Compound 3, 2-(4-fluoro-2,6-dimethylbenzoyl)-3-(4-((1-(3-fluoropropyl)azetidin-3-yl)methyl)phenoxy)benzo[b]thiophene-6-carboxylic acid], the percent ER degradation at 0.3 µM came to 85% and the DC50 was 3 nM.

Turning to `Cc1cc(F)cc(C)c1C(=O)c1sc2cc(C(=O)O)ccc2c1Oc1ccc(N[C@H]2CCN(CCCF)C2)cc1` [Compound 6, (S)-2-(4-fluoro-2,6-dimethylbenzoyl)-3-(4-((1-(3-fluoropropyl)pyrrolidin-3-yl)amino)phenoxy)benzo[b]thiophene-6-carboxylic acid], the percent ER degradation at 0.3 µM was 84% and the DC50 is 3 nM.

For `Cc1cc(F)cc(C)c1C(=O)c1sc2cc(C(=O)O)ccc2c1Oc1ccc(O[C@H]2CCN(CCCF)C2)cc1` [Compound 5, (S)-2-(4-fluoro-2,6-dimethylbenzoyl)-3-(4-((1-(3-fluoropropyl)pyrrolidin-3-yl)oxy)phenoxy)benzo[b]thiophene-6-carboxylic acid], the percent ER degradation at 0.3 µM was 91% and the DC50 turned out to be 12 nM.

Turning to `Cc1cc(F)cc(C)c1C(=O)c1sc2cc(C(=O)O)ccc2c1Oc1ccc(C=C2CN(CCCF)C2)cc1` [Compound 4, 2-(4-fluoro-2,6-dimethylbenzoyl)-3-(4-((1-(3-fluoropropyl)azetidin-3-ylidene)methyl)phenoxy)benzo[b]thiophene-6-carboxylic acid], the percent ER degradation at 0.3 µM was 98% and the DC50 came to 0.3 nM.

For `Cc1cc(F)cc(C)c1C(=O)c1sc2cc(C(=O)O)ccc2c1Oc1ccc(OC2CN(CCCF)C2)cc1` [Compound 2, 2-(4-fluoro-2,6-dimethylbenzoyl)-3-(4-((1-(3-fluoropropyl)azetidin-3-yl)oxy)phenoxy)benzo[b]thiophene-6-carboxylic acid], the percent ER degradation at 0.3 µM was 92% and the DC50 came to 5 nM.

Turning to `Cc1cc(F)cc(C)c1C(=O)c1sc2cc(C(=O)O)ccc2c1Oc1ccc(NC2CN(CCCF)C2)cc1` [Compound 1, 2-(4-fluoro-2,6-dimethylbenzoyl)-3-(4-((1-(3-fluoropropyl)azetidin-3-yl)amino)phenoxy)benzo[b]thiophene-6-carboxylic acid], the percent ER degradation at 0.3 µM was found to be 91% and the DC50 came to 5 nM.
